In patent US10463590B1, “Antiplaque and dental health oral formulation” (priority 2018, dated 2019):

Key:
Assay type in all cases: cell-based
[1] = test system: Streptococcus mutans and Streptococcus sorbinus; assay: Bactericidal effect, broth macro-dilution combined with plating assay after 24 h; details: 10 μg/ml amoxicillin (FIG. 7B)
Procedure: (§1) Two oral Streptococcus species, i.e., Streptococcus mutans AU159 strain and Streptococcus sorbinus SL1 strain, obtained from the American Type Culture Collection (Manassas, Va.), were tested in their two morphological forms: cocci planktonic form and biofilm. The stocks of both species were cultured in commonly used conditions, i.e., BHI broth (Remel, San Diego, Calif.) without antibiotics at 37° C. with 5% CO2, in sterile two-position cap 5 ml polypropylene test tubes.
The plates were then incubated at 37° C. with 5% CO2 and bacterial re-growth was assessed after 24 h. The entire experiment was repeated three times for each strain. Control cultures were treated with DMSO (i.e., 0.1-0.4% v/v) alone or amoxicillin (i.e. 10 μg/ml).

[2] = test system: Streptococcus mutans and Streptococcus sorbinus; assay: Bacteriostatic effect, broth macro-dilution assay (OD600) after 24 h; details: 10 μg/ml amoxicillin (FIG. 7A)
Procedure: as §1
Growth inhibition of Streptococcus mutans and Streptococcus sorbinus was tested using standard macro-dilution method according to guidance of American Society for Microbiology to establish MIC (Minimal Inhibitory Concentration) value. Briefly, sterile 3 ml test two-position capped tubes containing 1 ml BHI broth, supplemented with the test mix was inoculated with 1×10^7 CFU/ml of the homogenous bacterial suspension. The tubes were then incubated at 37° C. with 5% CO2 and growth inhibition as a decrease in the optical density (OD600) was measured after 24 h. The entire experiment was repeated three times for each strain. Control cultures were treated with DMSO (i.e., 0.1-0.4% v/v) alone or amoxicillin (i.e. 10 μg/ml).

[3] = test system: pre-existing biofilm of Streptococcus mutans and Streptococcus sorbinus; assay: Pre-formed biofilm killing (biocidal) effect, alamar Blue assay after 24 h; details: 500 μg/ml amoxicillin (FIG. 7E)
Procedure: as §1
Qualitative and quantitative efficacy of the test mix against biofilm of Streptococcus mutans and Streptococcus sorbinus was evaluated by the commonly used crystal violet (CV) staining method supported by alamarBlue staining assay (where resazurin, a non-fluorescent indicator dye, is converted to bright red-fluorescent resorufin via the reduction reactions of metabolically active cells and the amount of fluorescence produced is proportional to the number of living cells) for evaluating cellular health, according to guidance of American Society for Microbiology and manufacturer's protocol to establish MBEC (Minimal Biofilm Eradication Concentration) and MBBC (Minimal Biofilm Biocidal Concentration) values. Briefly, 1×10^7 CFU/ml from homogeneous bacterial culture in BHI broth containing 1% sucrose, as a standard approach, was inoculated into saliva-coated 96-well plates and supplemented with the test mix. […]

[4] = test system: biofilm of Streptococcus mutans and Streptococcus sorbinus; assay: Preventive effect on biofilm formation, crystal violet staining assay after 24 h; details: 10 μg/ml amoxicillin (FIG. 7C)
Procedure: as §1
Preventive effect of the test mix against biofilm of Streptococcus mutans and Streptococcus sorbinus was evaluated by the commonly used crystal violet (CV) staining method, according to guidance of American Society for Microbiology to establish MBFC (Minimal Biofilm Formation Concentration) value. Briefly, 1×10^7 CFU/ml from homogeneous bacterial culture in BHI broth containing 1% sucrose, as a standard approach, was inoculated into saliva-coated 96-well plates and supplemented with the test mix. Control wells were treated with DMSO (i.e., 0.1-0.4% v/v) alone or amoxicillin (i.e., 10 μg/ml). All plates were then incubated at 37° C. with 5% CO2 for 24 h. […] The biofilms were carefully washed three times with 1×PBS (phosphate-buffered saline), and 200 μl of methanol was added to each well to extract a dye which was measured at 595 nm using a spectrophotometer (Molecular Device, Spectra Max 340). […]

Q: How did the bactericidal effect [1] turn out when CC1(C)S[C@@H]2[C@H](NC(=O)[C@H](N)c3ccc(O)cc3)C(=O)N2[C@H]1C(=O)O [amoxicillin] was run?
A: 100%

Q: What about the bacteriostatic effect [2] of the same compound?
A: 100%

Q: What about the “biocidal effect on pre-existing biofilm” value [3] of the same compound?
A: approximately 20%

Q: What about the “preventive effect on biofilm formation” value [4] of the same compound?
A: approximately 99%
